Assay results taken from patent US6562828B1, “Amidine compounds” (Japan Tobacco Inc., priority 1998, dated 2003).
Where a name gives a salt, the structure may show the parent alone.

Columns and labels:
[1] = molecular target: T1, Human FIIa (Homo sapiens, UniProt P00734); assay: Determination of anti-factor IIa (FIIa) activity, synthetic substrate S-2238; format: biochemical; settings: S-2238, 37° C., pH 8.4, read-out: Experimental Example 2: anti-FIIa activity, IC50
T1 construct: purchased Sigma

[2] = molecular target: T2, Human FXa (Homo sapiens, UniProt P00742); assay: Determination of anti-factor Xa (FXa) activity, synthetic substrate S-2222; format: biochemical; settings: S-2222, 37° C., pH 8.4, read-out: Experimental Example 1: anti-FXa activity, IC50
T2 construct: Human FXa [Enzyme research Laboratories (USA)] enzyme; purchased Enzyme Research Laboratories (USA)
Protocol: Determination of Anti-factor Xa (FXa) Activity
Human FXa [Enzyme research Laboratories (USA)] enzyme (40 μl, 0.16U/ml) and test compounds (40 l) adjusted to various concentrations were incubated in 0.1M Tris (Tris-hydroxymethyl-aminomethane) buffer (pH 8.4) containing 0.2M sodium chloride (herein to be referred to as 0.1 M tris-0.2M NaCl buffer) (40 μl) at 37° C. for 10 min. A synthetic substrate S-2222 (Daiichi Pure Chemical (Tokyo, Japan), 40 μl) adjusted to 0.8 mM was added and the mixture was incubated at 37° C. for 10 min. The reaction was stopped by addition of 60% acetic acid (40 μl) and absorbance at 405 nm was measured by Model 3550 (BIO-RAD). For the control, the solvent was used instead of the test compound.
Target sequence in this assay (P00742 235-488 limits assumed): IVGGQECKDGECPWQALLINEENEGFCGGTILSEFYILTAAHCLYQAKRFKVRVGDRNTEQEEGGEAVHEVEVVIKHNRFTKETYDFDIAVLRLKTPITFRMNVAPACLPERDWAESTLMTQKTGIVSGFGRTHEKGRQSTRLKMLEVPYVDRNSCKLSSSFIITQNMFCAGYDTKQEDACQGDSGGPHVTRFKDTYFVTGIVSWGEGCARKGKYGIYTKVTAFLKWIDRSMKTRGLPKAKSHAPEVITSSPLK
Target sequence in this assay (P00742 41-179 partner limits assumed): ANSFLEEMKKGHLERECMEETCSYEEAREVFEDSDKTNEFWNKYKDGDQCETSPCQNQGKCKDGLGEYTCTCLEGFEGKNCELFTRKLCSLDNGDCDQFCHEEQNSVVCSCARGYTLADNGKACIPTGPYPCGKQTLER

[3] = molecular target: T2, Human FXa; assay: Intravenous administration test in mouse, human FXa inhibitory activity in serum; format: in vivo; settings: ICR mice, i.v., mean ± S.D., n = 3
Protocol: Intravenous Administration Tests in Mouse
A test compound dissolved in physiological saline was intravenously administered to ICR mice (body weight 20-30 g, 4-6 weeks old) and the activity of the test compound was evaluated based on the human FXa inhibitory activity in serum as an indicator.
At 10, 30, 60, 120 min from the intravenous administration, blood was taken from the eye ground using a hematocrit tube. The blood was centrifuged at 9000 G for 5 min and the obtained serum was used for the determination.
(§1) Human FXa inhibitory activity was measured as follows. Human FXa [Enzyme research Laboratories (USA)] enzyme (40 μl, 0.5 U/ml) and a 4-fold diluted plasma sample (40 μl) were incubated in 0.1M Tris-0.2M NaCl buffer (pH 8.4) (40 μl) at 37° C. for 10 min. A synthetic substrate S-2222 (Daiichi Pure Chemical (Tokyo, Japan), 40 μl) adjusted to 0.8 mM was added and the mixture was incubated at 37° C. for 5 min. The reaction was stopped by addition of 60% acetic acid (40 μl) and absorbance at 405 nm was measured by Model 3550 (BIO-RAD). For the control, serum or plasma obtained prior to blood sampling was used for measurement. Human FXa inhibitory activity was calculated as inhibition percentage (%) against control.
Target sequence in this assay (P00742 235-488 limits assumed): as the sequence (P00742 235-488 limits assumed) above
Target sequence in this assay (P00742 41-179 limits assumed): as the sequence (P00742 41-179 partner limits assumed) above

[4] = molecular target: T2, Human FXa; assay: Oral administration test in mouse, human FXa inhibitory activity in serum; format: in vivo; settings: ICR mice, mean ± S.D., n = 3
Protocol: as §1
Target sequence in this assay (P00742 235-488 limits assumed): as the sequence (P00742 235-488 limits assumed) above
Target sequence in this assay (P00742 41-179 limits assumed): as the sequence (P00742 41-179 partner limits assumed) above
Oral Administration Tests in Mouse
A test compound dissolved in distilled water was orally administered to ICR mice (body weight 20-30 g, 4-6 weeks old) and the activity of the test compound was evaluated based on the human FXa inhibitory activity in serum as an indicator.
At 30, 60, 120, 180 min from the oral administration, blood was taken from the eye ground using a hematocrit tube. The blood was centrifuged at 9000 G for 5 min and the obtained serum was used for the determination. Human FXa inhibitory activity was determined in the same manner as in the test by intravenous administration.

Row | SMILES | IC50 [1] [nM] | IC50 [2] [nM] | also measured
1 | CC(=N)N1CCC(Oc2ccc(N(Cc3nc4cc(C(=N)N)ccc4n3CC(=O)Nc3ccc(OCc4ccccc4)cc3)C(=O)c3ccc(C(=O)O)cc3)cc2)CC1 [Example 18, 4-[N-[5-Amidino-1-(4-benzyloxyphenylcarbamoylmethyl)benzimidazol-2-ylmethyl]-N-[4-(1-acetimidoylpiperidin-4-yloxy)phenyl]carbamoyl]benzoic Acid Dihydrochloride] | > 10000 | 10 | inhibition at 1 mg/kg ([3]; 10 minutes): 73 ± 1%; inhibition at 1 mg/kg ([3]; 30 minutes): 60 ± 4%; inhibition at 1 mg/kg ([3]; 60 minutes): 40 ± 3%; inhibition at 1 mg/kg ([3]; 120 minutes): 23 ± 5%
2 | CCOC(=O)C1(COc2ccc3ccc(C(=N)N)cc3c2)CCN(c2ccncc2)CC1 [Example 40, 4-(2-Amidinonaphthalen-7-yloxymethyl)-1-(pyridin-4-yl)piperidine-4-carboxylic Acid Ethyl Ester Dihydrochloride] | > 10000 | 500 | –
3 | N=C(N)N1CCc2ccc(SCC3(C(=O)O)CCN(c4ccncc4)CC3)cc2C1 [Example 43, 4-(2-Amidino-1,2,3,4-tetrahydroisoquinolin-7-ylthiomethyl)-1-(pyridin-4-yl)piperidine-4-carboxylic Acid Dihydrochloride] | > 10000 | 400 | –
4 | N=C(N)N1CCc2ccc(SCCC3(C(=O)O)CCN(c4ccncc4)CC3)cc2C1 [Example 44, 4-[2-(2-Amidino-1,2,3,4-tetrahydroisoquinolin-7-ylthio)ethyl]-1-(pyridin-4-yl)piperidine-4-carboxylic Acid Dihydrochloride] | > 10000 | 700 | –
5 | CC(=N)N1CCC(Oc2ccc(OCc3nc4cc(C(=N)N)ccc4n3CC(=O)NC[C@H]3CC[C@H](C(=O)O)CC3)cc2)CC1 [Example 53, trans-4-[2-[4-(1-Acetimidoylpiperidin-4-yloxy)phenoxymethyl]-5-amidinobenzimidazol-1-ylacetylaminomethyl]cyclohexanecarboxylic Acid Dihydrochloride] | > 10000 | 500 | –
6 | CC(=N)N1CCC(Oc2ccc(OCc3nc4cc(C(=N)N)ccc4n3CC(=O)c3ccccc3)cc2)CC1 [Example 57, 2-[4-(1-Acetimidoylpiperidin-4-yloxy)phenoxymethyl]-1-phenacylbenzimidazole-5-carboxamidine Dihydrochloride] | > 10000 | 50 | –
7 | CCOC(=O)C(=O)N(Cc1nc2cc(C(=N)N)ccc2n1CC(=O)NC1CCCCC1)C1CCN(c2ccncc2)CC1 [Example 60, 1-(Cyclohexylcarbamoylmethyl)-2-[N-[1-(pyridin-4-yl)piperidin-4-yl]-N-ethoxalylaminomethyl]benzimidazole-5-carboxamidine Dihydrochloride] | > 10000 | 900 | –
8 | N=C(N)c1ccc2c(c1)nc(CN(C(=O)C(=O)O)C1CCN(c3ccncc3)CC1)n2CC(=O)NC1CCCCC1 [Example 61, N-[5-Amidino-1-(cyclohexylcarbamoylmethyl)benzimidazole-2-ylmethyl]-N-[l-(pyridin-4-yl)piperidin-4-yl]aminooxalic Acid Dihydrochloride] | > 10000 | 300 | –
9 | CCOC(=O)CN(Cc1nc2cc(C(=N)N)ccc2n1CC(=O)NC1CCCCC1)c1ccc(OC2CCN(C(C)=N)CC2)cc1 [Example 62, 2-[N-[4-(1-Acetimidoylpiperidin-4-yloxy)phenyl]-N-ethoxycarbonyl-methylaminomethyl]-1-(cyclohexylcarbamoylmethyl)benzimidazole-5-carboxamidine Dihydrochloride] | > 10000 | 100 | –
10 | CC(=N)N1CCC(Oc2ccc(N(Cc3nc4cc(C(=N)N)ccc4n3CC(=O)NC3CCCCC3)C(=O)c3ccc(C(=O)O)cc3)cc2)CC1 [Example 63, N-[5-Amidino-1-(cyclohexylcarbamoylmethyl)benzimidazol-2-ylmethyl]-N-[4-(1-acetimidoylpiperidin-4-yloxy)phenyl]carbamoylbenzoic Acid] | > 10000 | 10 | inhibition at 0.3 mg/kg ([3]; 10 minutes): 32 ± 2%; inhibition at 0.3 mg/kg ([3]; 30 minutes): 16 ± 3%; inhibition at 0.3 mg/kg ([3]; 60 minutes): 4 ± 3%; inhibition at 0.3 mg/kg ([3]; 120 minutes): 1 ± 3%; inhibition at 1 mg/kg ([3]; 10 minutes): 55 ± 3%; inhibition at 1 mg/kg ([3]; 30 minutes): 46 ± 5%; inhibition at 1 mg/kg ([3]; 60 minutes): 16 ± 7%; inhibition at 1 mg/kg ([3]; 120 minutes): 3 ± 6%; inhibition at 10 mg/kg ([4]; 30 minutes): 22 ± 6%; inhibition at 10 mg/kg ([4]; 60 minutes): 14 ± 9%; inhibition at 10 mg/kg ([4]; 120 minutes): 12 ± 10%; inhibition at 10 mg/kg ([4]; 180 minutes): 12 ± 4%

Second part, led by results:

Row | IC50 [1] [nM] | IC50 [2] [nM] | SMILES | also measured
11 | > 10000 | 100 | COC(=O)c1ccc(C(=O)N(Cc2nc3cc(C(=N)N)ccc3n2CC(=O)NC2CCCCC2)c2ccc(OC3CCN(C(=N)N)CC3)cc2)cc1 [Example 64, 2-[N-[4-(1-Amidinopiperidin-4-yloxy)phenyl]-N-(4-methoxycarbonyl-benzoyl)aminomethyl]-1-(cyclohexylcarbamoylmethyl)benzimidazole-5-carboxamidine Dihydrochloride] | inhibition at 1 mg/kg ([3]; 10 minutes): 55 ± 2%; inhibition at 1 mg/kg ([3]; 30 minutes): 43 ± 5%; inhibition at 1 mg/kg ([3]; 60 minutes): 28 ± 6%
12 | > 10000 | 20 | N=C(N)c1ccc2c(c1)nc(CN(C(=O)c1ccc(C(=O)O)cc1)c1ccc(OC3CCN(C(=N)N)CC3)cc1)n2CC(=O)NC1CCCCC1 [Example 65, N-[5-Amidino-1-(cyclohexylcarbamoylmethyl)benzimidazol-2-ylmethyl]-N-[4-(1-amidinopiperidin-4-yloxy)phenyl]carbamoylbenzoic Acid Dihydrochloride] | inhibition at 1 mg/kg ([3]; 10 minutes): 55 ± 1%; inhibition at 1 mg/kg ([3]; 30 minutes): 34 ± 2%; inhibition at 1 mg/kg ([3]; 60 minutes): 17 ± 2%
13 | > 10000 | 700 | N=C(N)N1CCc2ccc(OCC3CCN(S(=O)(=O)NCc4ccccc4)CC3)cc2C1 [Example 83, N-Benzyl-4-(2-amidino-1,2,3,4-tetrahydroisoquinolin-7-yloxymethyl)piperidine-1-sulfonamide hydrochloride] | –
14 | > 10000 | 200 | N=C(N)N1CCc2ccc(OCC3CCN(c4ccncc4CCC(=O)O)CC3)cc2C1 [Example 89, 3-[4-[4-(2-Amidino-1,2,3,4-tetrahydroisoquinolin-7-yloxymethyl)piperidin-1-yl]pyridin-3-yl]propionic Acid Dihydrochloride] | –
15 | > 10000 | 400 | CCOC(=O)C1(COc2ccc3c(c2)CN(C(=N)N)CC3)CCN(c2ccc(C(=N)N)cc2)CC1 [Example 98, 4-(2-Amidino-1,2,3,4-tetrahydroisoquinolin-7-yloxymethyl)-1-(4-amidinophenyl)-piperidine-4-carboxylic Acid Ethyl Ester Dihydrochloride] | –
16 | > 10000 | 200 | CC(=N)N1CCC(Oc2ccc(N(Cc3nc4cc(C(=N)N)ccc4n3C/C=C/c3ccccc3)C(=O)c3ccc(C(=O)O)cc3)cc2)CC1 [Example 109, N-[5-Amidino-1-(3-phenyl-2-propenyl)benzimidazol-2-ylmethyl]-N-[4-(1-acetimidoylpiperidin-4-yloxy)phenyl]carbamoylbenzoic Acid Dihydrochloride] | –
17 | > 10000 | 20 | CCN=C(N)N1CCC(Oc2ccc(N(Cc3nc4cc(C(=N)N)ccc4n3CC(=O)NC3CCCCC3)C(=O)c3ccc(C(=O)O)cc3)cc2)CC1 [Example 112, N-[5-Amidino-1-(cyclohexylcarbamoylmethyl)benzimidazol-2-ylmethyl]-N-[4-[1-(N-ethylamidino)piperidin-4-yloxy]phenyl]carbamoylbenzoic Acid Dihydrochloride] | inhibition at 1 mg/kg ([3]; 10 minutes): 49 ± 1%; inhibition at 1 mg/kg ([3]; 30 minutes): 41 ± 8%; inhibition at 1 mg/kg ([3]; 60 minutes): 23 ± 11%
